US20080004266A1, “Method for treating proliferative disorders associated with protooncogene products” (priority 2006, published 2008)
Entries after “also recorded” stand apart in the source; their conditions may differ.

Legend:
c-kit [1] = test: FACS-based c-kit degradation assay in Kasumi-1 cells; format: cell-based, human; conditions: about 18 h, compounds at 0.5 and 0.05 μM, 17-AAG at 0.5 μM
Description: (§1) Two leukemia cell lines, HEL92.1.7 and Kasumi-1, were used for testing c-kit degradation induced by Hsp90 inhibitors of the invention. […] The cells were collected and centrifuged (SORVALL RT 6000D) at 1200 rpm for 5 min. The supernatants were discarded, and the cells were washed one time with 1×PBS. After centrifugation the cells were stained with FITC conjugated c-kit antibody (MBL International, Cat# K0105-4) in […] 1×PBS at 4° C. for 1 h. The samples were read and analysized with FACSCalibur flow cytometer (Becton Dicknson).

[2] = system: c-Kit tyrosine kinase receptor (N822K mutation); test: Western blot analysis of c-Kit in Kasumi-1 cells; format: cell-based, human; conditions: 100 nM and 400 nM
Text: The results of the FACS analysis were confirmed with Western blot analysis (see FIG. 5). […] In contrast, 17-AAG had no effect of c-Kit protein levels.

c-kit [3] = test: FACS-based c-kit degradation assay in HEL92.1.7 cells; format: cell-based; conditions: about 18 h, compounds at 0.5 and 0.05 μM, 17-AAG at 0.5 μM
Description: as §1

[4] = system: Karpas-299 cells (NPM-ALK); test: Cell survival in Karpas-299 cells (Cell Counting Kit-8); format: cell-based, human; conditions: 72 hours
Description: Growth of this tumor cell line is dependent upon the expression of the NPM-ALK fusion protein. Karpas-299 cells (20,000 cells/well) were cultured in 96-well plates and maintained at 37° C. for several hours. The cells were incubated at 37° C. for 72 hours with various concentrations of compound 226 of the invention, 17AAG, and 17DMAG. 17AAG and 17DMAG are Hsp90 inhibitors that are currently in clinical trials and are used here as positive controls for Hsp90 inhibition. Cell survival was measured with Cell Counting Kit-8 (Dojindo Laboratories, Cat # CK04).

A375 cells (B-raf V600E) = test: Cell survival in A375 melanoma cells (Cell Counting Kit-8); format: cell-based, human; conditions: 72 hours
Description: Human melanoma cell line, A375 (2×10^6 cells), which contains the V600E mutation in the B-raf protein that confers constitutive […] kinase activity, was obtained from American Type Culture Collection. A375 cells (20,000 cells/well) were cultured in 96-well plates and maintained at 37° C. for several hours. The cells were incubated at 37° C. for 72 hours with various concentrations of compound 226, 17AAG or 17DMAG. 17AAG and 17DMAG are Hsp90 inhibitors that are currently in clinical trials and are used here as positive controls for Hsp90 inhibition. Cell survival was measured with Cell Counting Kit-8 (Dojindo Laboratories, Cat # CK04).

[5] = system: Kasumi-1 cells (c-Kit N822K); test: Cell survival in Kasumi-1 cells (Cell Counting Kit-8); format: cell-based, human; conditions: Homo sapiens, 72 hours
Description: Kasumi-1 cells (20,000 cells/well) were cultured in 96-well plates and maintained at 37° C. for several hours. […] 17AAG and DMAG are Hsp90 inhibitors that are currently in clinical trials and are used here as positive controls for Hsp90 inhibition. […] Cell survival was measured with Cell Counting Kit-8 (Dojindo Laboratories, Cat # CK04).

MV 4-11 cells (FLT3-ITD) = test: Cell survival in MV-4-11 cells (Cell Counting Kit-8); format: cell-based, human; conditions: Homo sapiens, MV4-11, 72 hours
Description: Human acute myelogenous leukemia (AML) cell line, MV 4-11 (ATCC #CRL-9591), was obtained from the American Type Culture Collection (ATCC; Manassas, Va., USA). Growth of this tumor cell line is dependent upon the expression of an activated form of the FLT3 tyrosine kinase receptor carrying an internal tandem duplication (ITD) mutation, which is the most common molecular defect associated with AML (K. W. Yee et al., Blood 100:2941-2949, 2002). MV 4-11 cells (20,000 cells/well) were cultured in 96-well plates and maintained at 37° C. for several hours. The cells were incubated at 37° C. for 72 hours with various concentrations of compounds of the invention, 17AAG, or DMAG. 17AAG and DMAG are Hsp90 inhibitors that are currently in clinical trials and are used here as positive controls for Hsp90 inhibition. Cell survival was measured with Cell Counting Kit-8 (Dojindo Laboratories, Cat # CK04).

K562 cells (Bcr-Abl) = test: Cell survival in K562 cells (Cell Counting Kit-8); format: cell-based, human; conditions: Homo sapiens, 72 hours
Description: Growth of this tumor cell line is dependent upon the expression of the Bcr-Abl fusion protein (C. Gambacarti-Passerini et al., Blood Cells Mol. Dis. 23:380-394, 1997). K562 cells (20,000 cells/well) were cultured in 96-well plates and maintained at 37° C. for several hours. […] 17AAG, DMAG, and Radicical are Hsp90 inhibitors that are currently in clinical trials and are used here as positive controls for Hsp90 inhibition. […] Cell survival was measured with Cell Counting Kit-8 (Dojindo Laboratories, Cat # CK04).

phosphorylated Bcr-Abl = test: Degradation of Bcr-Abl in KU812 cells (Western blot); format: cell-based; conditions: 18 hours
Description: KU812 chronic myeloid leukemia cells (ATCC) (2×10^6 cells), which harbor the Philadelphia chromosome that produces Bcr-Abl tyrosine kinase, were treated (0.1 μM and 1.0 μM) with either Compound 226, 17-AAG or 17-DMAG. After 18 hours, the cells were lysed with 1× lysis buffer, and a western blot was perform using anti-BCR-ABL antibody to detect phosphorylated Bcr-Abl.

[6] = system: human tumor cell line MDA-MB-435S; test: MDA-MB-435S nude mouse xenograft model; format: in vivo; conditions: nude mice, 300 mg/kg body weight IP, 5 times per week for 3 weeks, versus vehicle
Description: FBS was obtained from Sigma-Aldrich Corp. (St. Louis, Mo., USA), and all other reagents were obtained from Invitrogen Corp. (Carlsbad, Calif., USA). Approximately 4−5×10 (6) cells that had been cryopreserved in liquid nitrogen were rapidly thawed at 37° C. and transferred to a 175 cm^2 tissue culture flask containing 50 ml of growth media and then incubated at 37° C. in a 5% CO2 incubator. The growth media was replaced every 2-3 days until the flask became 90% confluent, typically in 5-7 days. To passage and expand the cell line, a 90% confluent flask was washed with 10 ml of room temperature phosphate buffered saline (PBS) and the cells were disassociated by adding 5 ml 1× Trypsin-EDTA (Invitrogen) and incubating at 37° C. until the cells detached from the surface of the flask. To inactivate the trypsin, 5 ml of growth media was added and then the contents of the flask were centrifuged to pellet the cells. The supernatant was aspirated and the cell pellet was resuspended in 10 ml of growth media and the cell number determined using a hemocytometer. […]
Six to eight week old, female Crl:CD-1-nuBR (nude) mice were obtained from Charles River Laboratories (Wilmington, Mass., USA). […] Tumor volumes (V) were calculated by caliper measurement of the width (W), length (L) and thickness (T) of tumors using the following formula: V=[…]×(L×W×T). […]

## CC(C)c1cc(-c2nnc(S)n2-c2ccc3c(ccn3C)c2)c(O)cc1O [Compound 221, 3-(2,4-di-hydroxy-5-isopropyl-phenyl)-4-(N-methyl-indol-5-yl)-5-mercapto-[1,2,4] triazole]
c-kit [1]
  c-kit degradation (c-kit positive population, FACS): induced c-kit degradation
[2]
  c-Kit protein levels (Western blot): induced the degradation of c-Kit
c-kit [3]
  c-kit degradation (c-kit positive population, FACS): induced c-kit degradation

## CO[C@H]1/C=C\C=C(/C)C(=O)NC2=CC(=O)C(NCCN(C)C)=C(C[C@@H](C)C[C@H](OC)[C@H](O)[C@@H](C)/C=C(\C)[C@@H]1OC(N)=O)C2=O [Compound 17DMAG, 17-(2-dimethylaminoethyl-1)amino-17-desmethoxygeldanamycin]
[4]
  IC50: 0.062 µM
A375 cells (B-raf V600E)
  IC50: 0.004 µM

## CCc1cc(-c2nnc(S)n2-c2ccc(OC)c3c2ccn3C(C)C)c(O)cc1O [Compound 188, 3-(2,4-Dihydroxy-5-ethyl-phenyl)-4-(1-isopropyl-7-methoxy-indol-4-yl)-5-mercapto-[1,2,4]triazole]
[5]
  IC50: 0.072 µM
MV 4-11 cells (FLT3-ITD)
  IC50: 0.025 µM
c-kit [1]
  c-kit degradation (c-kit positive population, FACS): induced c-kit degradation
c-kit [3]
  c-kit degradation (c-kit positive population, FACS): induced c-kit degradation

## C=CCNC1=C2C[C@@H](C)C[C@H](OC)[C@H](O)[C@@H](C)/C=C(\C)[C@H](OC(N)=O)[C@@H](OC)/C=C\C=C(/C)C(=O)NC(=CC1=O)C2=O [Compound 17-AAG, 17-allylamino-17-demethoxygeldanamycin, reference compound]
c-kit [1]
  c-kit degradation (c-kit positive population, FACS): could not induce c-kit degradation
[2]
  c-Kit protein levels (Western blot): no effect
c-kit [3]
  c-kit degradation (c-kit positive population, FACS): could not induce c-kit degradation

## C[C@@H]1C[C@H]2O[C@@H]2/C=C\C=C\C(=O)Cc2c(Cl)c(O)cc(O)c2C(=O)O1 [Radicical, Radicicol]
K562 cells (Bcr-Abl)
  IC50: 0.331 µM

## COc1ccc(-n2c(S)nnc2-c2cc(C(C)C)c(O)cc2O)c2ccn(C(C)C)c12 [Compound 208, 3-(2,4-di-hydroxy-5-isopropyl-phenyl)-4-(1-isopropyl-7-methoxy-indol-4-yl)-5-mercapto-[1,2,4] triazole]
[5]
  IC50: 0.049 µM
MV 4-11 cells (FLT3-ITD)
  IC50: 0.02 µM

## CO[C@H]1/C=C\C=C(/C)C(=O)NC2=CC(=O)C(NCCN(C)C)=C(C[C@@H](C)C[C@H](OC)[C@H](O)[C@@H](C)/C=C(\C)[C@@H]1OC(N)=O)C2=O [Compound 17-DMAG]
Phosphorylated Bcr-Abl; 0.1 μM
  degradation of phosphorylated Bcr-Abl: partial degradation
Phosphorylated Bcr-Abl; 1.0 μM
  degradation of phosphorylated Bcr-Abl: complete degradation

## CCc1cc(-c2nnc(S)n2-c2cccc3ccccc23)c(O)cc1O [Compound 49, 3-(2,4-Di-hydroxy-5-ethyl-phenyl)-4-(naphthalen-1-yl)-5-mercapto-triazole]
[6]
  toxicity (effect on body weights): not toxic; also recorded: not associated with significant toxicity

## CCCn1ccc2c(-n3c(S)nnc3-c3cc(C4CC4)c(O)cc3O)ccc(OC)c21 [Compound 205, 3-(2,4-di-hydroxy-5-cyclopropyl-phenyl)-4-(1-propyl-7-methoxy-indol-4-yl)-5-mercapto-[1,2,4] triazole]
MV 4-11 cells (FLT3-ITD)
  IC50: 0.049 µM
